According to ChEMBL document CHEMBL1144368, “Synthesis of 15R-PGD2: a potential DP2 receptor agonist” (Bioorg Med Chem Lett, 2005):
pEC50: −log10 of the molar value.

Key:
Type in all cases: functional
[1] = target: T1, Prostaglandin D2 receptor 2 (Homo sapiens) (UniProt Q9Y5Y4); assay: Percentage for DP2 mediated stimulation of actin polymerization in eosinophils was determined at 1 uM; (above control)
T1 sequence (whole entry): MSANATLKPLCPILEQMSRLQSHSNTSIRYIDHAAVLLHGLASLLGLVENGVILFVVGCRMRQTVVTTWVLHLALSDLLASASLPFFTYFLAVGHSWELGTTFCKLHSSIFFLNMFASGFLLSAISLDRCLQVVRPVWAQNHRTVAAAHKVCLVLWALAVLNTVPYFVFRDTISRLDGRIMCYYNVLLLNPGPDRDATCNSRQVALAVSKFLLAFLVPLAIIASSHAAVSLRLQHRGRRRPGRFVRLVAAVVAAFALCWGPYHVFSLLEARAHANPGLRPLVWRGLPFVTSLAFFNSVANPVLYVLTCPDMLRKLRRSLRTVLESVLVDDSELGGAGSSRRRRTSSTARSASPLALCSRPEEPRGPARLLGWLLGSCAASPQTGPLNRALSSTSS

[2] = target: T2, Prostaglandin D2 receptor (Homo sapiens) (UniProt Q13258); assay: Effective concentration for DP1 mediated cAMP formation in platelets was determined at 1 uM
T2 sequence (whole entry): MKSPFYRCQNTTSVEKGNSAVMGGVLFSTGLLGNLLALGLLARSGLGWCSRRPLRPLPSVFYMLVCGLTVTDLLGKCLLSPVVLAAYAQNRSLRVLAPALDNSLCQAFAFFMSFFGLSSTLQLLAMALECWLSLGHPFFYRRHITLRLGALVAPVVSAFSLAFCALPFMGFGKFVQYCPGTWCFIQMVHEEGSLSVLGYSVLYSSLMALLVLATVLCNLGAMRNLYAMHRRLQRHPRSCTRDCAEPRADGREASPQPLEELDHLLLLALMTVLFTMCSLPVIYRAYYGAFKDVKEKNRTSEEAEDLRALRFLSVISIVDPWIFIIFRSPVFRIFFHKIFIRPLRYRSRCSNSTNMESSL

[3] = target: T2, Prostaglandin D2 receptor (Homo sapiens); assay: Effective concentration for DP1 mediated cAMP formation in platelets
[4] = target: T3, Prostaglandin D2 receptor 2 (Homo sapiens, UniProt Q9Y5Y4); assay: Effective concentration DP2 mediated expression of the adhesion molecule CD11b in eosinophils
T3 sequence (Q9Y5Y4 whole entry): T1 sequence (whole entry)

[5] = target: T3, Prostaglandin D2 receptor 2; assay: Effective concentration for DP2 mediated stimulation of actin polymerization in eosinophils

Activity [1] | Activity [2] | EC10 [3] | pEC50 [4] | pEC50 [5] | SMILES
83.8% | 0.83 pmol | – | – | – | CCCCC[C@@H](O)/C=C/[C@H]1C(=O)C[C@H](O)[C@@H]1C/C=C/CCCC(=O)O
86.2% | 15.5 pmol | 11 nM | 8.15 | 7.89 | CCCCC[C@H](O)/C=C/[C@H]1C(=O)C[C@H](O)[C@@H]1CC=CCCCC(=O)O [[3H]PGD2]
– | – | 2100 nM | 7.00 | 6.48 | CCCCC[C@](C)(O)/C=C/[C@H]1C(=O)C[C@H](O)[C@@H]1C/C=C/CCCC(=O)O
– | – | > 10000 nM | 8.85 | 8.42 | CCCCC[C@@](C)(O)/C=C/[C@H]1C(=O)C[C@H](O)[C@@H]1C/C=C/CCCC(=O)O
